Measured values as given in patent US10301272B2, “Carboxamide or sulfonamide substituted thiazoles and related derivatives as modulators for the orphan nuclear receptor ROR[γ]” (Phenex Pharmaceuticals AG, priority 2012, dated 2019).
Where two headings read alike, the source gives them in different places.

Columns and labels:
RORγ = RORγ (Homo sapiens, UniProt P51449); experiment: RORγ Gal4 Reporter Gene Assay; format: cell-based
How it was run: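 Cells at 5×10^5/well were transfected with RORγ fragments fused to the GAL4 DNA-binding domain (CMV promoter), a 5×GAL4-site firefly luciferase reporter and CMV-Renilla luciferase for normalization. About 4 h later serum-free MEM and compound were added (vehicle ≤0.1%). Cultures at 37 °C, 5% CO2; at least triplicates.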

[1] = molecular target: RORγ ligand binding domain (LBD) (Homo sapiens (Human), UniProt P51449); experiment: TR-FRET Activity Assay (ligand sensing assay, LANCE); details: for pIC50 (FRET): TR-FRET, interaction of RORγ-LBD with coactivator peptide
Sequence of RORγ ligand binding domain (LBD) (P51449 269-508): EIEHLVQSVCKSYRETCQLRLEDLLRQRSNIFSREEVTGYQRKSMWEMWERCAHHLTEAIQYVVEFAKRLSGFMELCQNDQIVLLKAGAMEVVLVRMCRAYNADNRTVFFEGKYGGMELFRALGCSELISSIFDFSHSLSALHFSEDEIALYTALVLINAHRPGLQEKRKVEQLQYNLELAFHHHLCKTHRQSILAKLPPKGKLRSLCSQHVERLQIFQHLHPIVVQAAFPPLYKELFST

Sequence of RORγ (P51449 whole entry, looked up, the tested form may be a part): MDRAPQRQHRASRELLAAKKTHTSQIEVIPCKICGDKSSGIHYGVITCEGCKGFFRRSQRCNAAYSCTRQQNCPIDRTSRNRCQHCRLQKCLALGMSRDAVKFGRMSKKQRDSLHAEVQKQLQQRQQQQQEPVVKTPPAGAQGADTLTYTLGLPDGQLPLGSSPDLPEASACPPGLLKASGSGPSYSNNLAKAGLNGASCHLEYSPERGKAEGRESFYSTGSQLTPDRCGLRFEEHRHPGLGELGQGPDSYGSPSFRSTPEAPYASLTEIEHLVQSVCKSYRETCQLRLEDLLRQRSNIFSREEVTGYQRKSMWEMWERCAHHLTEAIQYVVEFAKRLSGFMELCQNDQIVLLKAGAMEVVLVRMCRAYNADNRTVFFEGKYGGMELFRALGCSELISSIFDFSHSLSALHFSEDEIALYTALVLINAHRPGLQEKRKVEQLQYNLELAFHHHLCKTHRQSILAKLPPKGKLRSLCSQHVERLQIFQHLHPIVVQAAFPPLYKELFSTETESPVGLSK

CC(C)(C)NS(=O)(=O)c1ccc(-c2sc(C(=O)N[C@H]3C[C@H](C(=O)O)C3)nc2CC2CCCCC2)c2c(F)cccc12 [19/9]
pIC50 (FF) (RORγ): 6.3/7.0/7.1
pIC50 (REN) (RORγ): 6.3/7.0/7.1
pIC50 (FRET) [1]: 6.3/7.0/7.1

CC(C)(C)NS(=O)(=O)c1ccc(-c2sc(C(=O)NC3CS(=O)(=O)C3)nc2CC2CCCCC2)c(Cl)c1Cl [15/4]
pIC50 (FF) (RORγ): 7.3/8.7/9.0
pIC50 (REN) (RORγ): 7.3/8.7/9.0
pIC50 (FRET) [1]: 7.3/8.7/9.0

CC(C)(C)NS(=O)(=O)c1ccc(-c2sc(C(=O)NCCC(C)(C)C(=O)O)nc2CC2CCCCC2)c(Cl)c1Cl [6/39]
pIC50 (FF) (RORγ): 6.4/8.2/8.2
pIC50 (REN) (RORγ): 6.4/8.2/8.2
pIC50 (FRET) [1]: 6.4/8.2/8.2

CC(C)(C)NS(=O)(=O)c1ccc(-c2sc(C(=O)NC3CCS(=O)(=O)CC3)nc2CC2CCCCC2)c2ccncc12 [21/13]
pIC50 (FF) (RORγ): 6.3/7.9/7.9
pIC50 (REN) (RORγ): 6.3/7.9/7.9
pIC50 (FRET) [1]: 6.3/7.9/7.9

CC(C)(C)c1cc(-c2ccc(C(N)=O)cc2CC2CCCCC2)cc(C(C)(C)C)c1 [Example 209]
pIC50 (FF) (RORγ): 6.4/6.2/6.2
pIC50 (REN) (RORγ): 6.4/6.2/6.2
pIC50 (FRET) [1]: 6.4/6.2/6.2

CC(C)(C)NS(=O)(=O)c1ccc(-c2sc(C(=O)N3CC4(COC4)C3)nc2CC2CCCCC2)c(Cl)c1Cl [6/33]
pIC50 (FF) (RORγ): 6.6/7.9/8.0
pIC50 (REN) (RORγ): 6.6/7.9/8.0
pIC50 (FRET) [1]: 6.6/7.9/8.0

CC1(c2cc(C(=O)NC3(C#N)CC3)cc(-c3sc(C(=O)NC4CCS(=O)(=O)CC4)nc3CC3CCCCC3)c2)CC1 [10/2]
pIC50 (FF) (RORγ): 6.6/7.3/7.4
pIC50 (REN) (RORγ): 6.6/7.3/7.4
pIC50 (FRET) [1]: 6.6/7.3/7.4

CC(C)(C)NS(=O)(=O)c1ccc(-c2sc(C(=O)NC3C[S+]([O-])C3)nc2CC2CCCCC2)c(Cl)c1Cl (stereo not drawn) [15/5]
pIC50 (FF) (RORγ): 6.9/8.5/8.4
pIC50 (REN) (RORγ): 6.9/8.5/8.4
pIC50 (FRET) [1]: 6.9/8.5/8.4

CC(C)COc1cc(-c2sc(C(=O)N[C@H]3C[C@H](C(=O)O)C3)nc2CC2CCCCC2)cc(C(C)(C)C)n1 [7/11]
pIC50 (FF) (RORγ): 5.9/7.4/7.4
pIC50 (REN) (RORγ): 5.9/7.4/7.4
pIC50 (FRET) [1]: 5.9/7.4/7.4

CC(C)(C)NS(=O)(=O)c1ccc(-c2oc(C(=O)NC3CCS(=O)(=O)CC3)nc2CC2CCC2)c2ccccc12 [Example 104, 5-(4-(N-(tert-Butyl)sulfamoyl)naphthalen-1-yl)-4-(cyclobutylmethyl)-N-(1,1-dioxidotetrahydro-2H-thiopyran-4-yl)oxazole-2-carboxamide]
pIC50 (FF) (RORγ): 6.6/7.5/7.9
pIC50 (REN) (RORγ): 6.6/7.5/7.9
pIC50 (FRET) [1]: 6.6/7.5/7.9

CC(C)(C)c1cc(-c2sc(C(=O)N[C@H]3C[C@H](C(=O)O)C3)nc2CC2CCCCC2)cc(C(C)(C)F)c1 [Example 24, (trans)-3-(5-(3-(tert-Butyl)-5-(2-fluoropropan-2-yl)phenyl)-4-(cyclohexylmethyl)thiazole-2-carboxamido)cyclobutanecarboxylic acid]
pIC50 (FF) (RORγ; firefly (FF) luciferase, 293T cells): 7.5
pIC50 (REN) (RORγ; renilla normalised (RENnorm) luciferase, 293T cells): 7.5
IC50 [1]: 316 nM

CC(C)(C)NS(=O)(=O)c1ccc(-c2oc(C(=O)N3CC4(CCS(=O)(=O)CC4)C3)nc2CC2CCCCC2)c2ccccc12 [100/9]
pIC50 (FF) (RORγ): 6.3/8.5/8.5
pIC50 (REN) (RORγ): 6.3/8.5/8.5
pIC50 (FRET) [1]: 6.3/8.5/8.5

CC(C)(C)c1cc(-c2nc(C(N)=O)sc2CC2CCCCC2)cc(C(C)(C)C)c1 [Example 1, 5-(Cyclohexylmethyl)-4-(3,5-di-tert-butylphenyl)thiazole-2-carboxamide]
pIC50 (FF) (RORγ): 6.5/5.8/5.8
pIC50 (REN) (RORγ): 6.5/5.8/5.8
pIC50 (FRET) [1]: 6.5/5.8/5.8

CC(C)(CO)NS(=O)(=O)c1ccc(-c2sc(C(=O)N3CC4(CCS(=O)(=O)CC4)C3)nc2CC2CCCCC2)c2ccccc12 [Example 14/1]
pIC50 (FF) (RORγ): 6.2/7.1/7.1
pIC50 (REN) (RORγ): 6.2/7.1/7.1
pIC50 (FRET) [1]: 6.2/7.1/7.1

CC(C)(C)NS(=O)(=O)c1ccc(-c2sc(C(=O)N[C@H]3C[C@H](C(=O)O)C3)nc2CC2CCCCC2)c2c1CCC2 [9/11]
pIC50 (FF) (RORγ): 6.6/8.5/8.5
pIC50 (REN) (RORγ): 6.6/8.5/8.5
pIC50 (FRET) [1]: 6.6/8.5/8.5

CC(C)(C)NS(=O)(=O)c1ccc(-c2oc(C(=O)N3CC4(CCSCC4)C3)nc2CC2CCCCC2)c2ccccc12 [100/11]
pIC50 (FF) (RORγ): 6.8/7.1/7.3
pIC50 (REN) (RORγ): 6.8/7.1/7.3
pIC50 (FRET) [1]: 6.8/7.1/7.3

CC(C)(C)NS(=O)(=O)c1ccc(-c2oc(C(=O)NC3CCC(C)(C(=O)O)CC3)nc2CC2CCCCC2)c2ccccc12 (stereo not drawn) [100/22]
pIC50 (FF) (RORγ): 5.9/6.8/7.0
pIC50 (REN) (RORγ): 5.9/6.8/7.0
pIC50 (FRET) [1]: 5.9/6.8/7.0

O=C(NC1CCS(=O)(=O)CC1)c1nc(CC2CCCCC2)c(-c2ccc(N3CCOCC3)c3ccccc23)s1 [7/27]
pIC50 (FF) (RORγ): 6.5/6.9/6.9
pIC50 (REN) (RORγ): 6.5/6.9/6.9
pIC50 (FRET) [1]: 6.5

CC(C)(C)c1cc(-c2sc(C(=O)N[C@H]3C[C@H](C(=O)O)C3)nc2CC2CCCCC2)cc(C(F)F)c1 [7/5]
pIC50 (FF) (RORγ): 6.3/7.0/7.1
pIC50 (REN) (RORγ): 6.3/7.0/7.1
pIC50 (FRET) [1]: 6.3/7.0/7.1

CC(C)(C)NS(=O)(=O)c1ccc(-c2sc(C(=O)NCC3(O)CCS(=O)(=O)CC3)nc2CC2CCCCC2)c2ccccc12 [6/5]
pIC50 (FF) (RORγ): 6.6/8.5/8.7
pIC50 (REN) (RORγ): 6.6/8.5/8.7
pIC50 (FRET) [1]: 6.6/8.5/8.7

CC(C)(O)CNC(=O)c1nc(CC2CCCCC2)c(-c2ccc(S(=O)(=O)NC(C)(C)C)c3c(F)cccc23)s1 [19/8]
pIC50 (FF) (RORγ): 7.0/7.7/7.8
pIC50 (REN) (RORγ): 7.0/7.7/7.8
pIC50 (FRET) [1]: 7.0/7.7/7.8

CCCc1nc(C(=O)N[C@H]2C[C@H](C(=O)O)C2)sc1-c1ccc(S(=O)(=O)NC(C)(C)C)c(Cl)c1Cl [300/6]
IC50 (RORγ; firefly (FF) luciferase, 293T cells, read-out: pIC50 (FF) (converted)): 126 nM
IC50 (RORγ; renilla normalised (RENnorm) luciferase, 293T cells, read-out: pIC50 (REN) (converted)): 158 nM
IC50 [1]: 200 nM

CC(C)(C)NS(=O)(=O)c1ccc(-c2sc(C(=O)NC3CCS(=O)(=O)CC3)nc2Cc2ccccc2)c2ccccc12 [Example 300, 4-Benzyl-5-(4-(N-(tert-butyl)sulfamoyl)naphthalen-1-yl)-N-(1,1-dioxidotetrahydro-2H-thiopyran-4-yl)thiazole-2-carboxamide]
pIC50 (FF) (RORγ): 7.1/8.2/8.4
pIC50 (REN) (RORγ): 7.1/8.2/8.4
pIC50 (FRET) [1]: 7.1/8.2/8.4

CC(C)(C)NS(=O)(=O)c1ccc(-c2sc(NS(C)(=O)=O)nc2CC2CCCCC2)cc1C(F)(F)F [Example 201, N-(tert-Butyl)-4-(4-(cyclohexylmethyl)-2-(methylsulfonamido)thiazol-5-yl)-2-(trifluoromethyl)benzenesulfonamide]
pIC50 (FF) (RORγ): 6.0/6.5/6.6
pIC50 (REN) (RORγ): 6.0/6.5/6.6
pIC50 (FRET) [1]: 6.0/6.5/6.6

CC(C)(O)c1cc(-c2sc(C(=O)N[C@H]3C[C@@H](C(=O)O)C3)nc2CC2CCCCC2)cc(C2(C)CC2)c1 [9/10]
pIC50 (FF) (RORγ): 6.3/7.2/7.2
pIC50 (REN) (RORγ): 6.3/7.2/7.2
pIC50 (FRET) [1]: 6.3/7.2/7.2

CC(C)(C)NS(=O)(=O)c1ccc(-c2oc(C(=O)NC3CCS(=O)(=O)CC3)nc2CC2CCCCC2)c2ccccc12 [100/6]
pIC50 (FF) (RORγ): 6.4/8.5/8.4
pIC50 (REN) (RORγ): 6.4/8.5/8.4
pIC50 (FRET) [1]: 6.4/8.5/8.4

CC(C)(C)NS(=O)(=O)c1ccc(-c2sc(C(=O)N[C@H]3C[C@H](C(=O)O)C3)nc2CC2CCCCC2)c(F)c1OC(F)(F)F [19/10]
pIC50 (FF) (RORγ): 6.7/8.4/8.5
pIC50 (REN) (RORγ): 6.7/8.4/8.5
pIC50 (FRET) [1]: 6.7/8.4/8.5

CC(C)(CNC(=O)c1nc(CC2CCCCC2)c(-c2cc(C(C)(C)C)cc(C3(C)CC3)c2)o1)C(=O)O [100/19]
pIC50 (FF) (RORγ): 5.9/6.6/6.6
pIC50 (REN) (RORγ): 5.9/6.6/6.6
pIC50 (FRET) [1]: 5.9/6.6/6.6

CC(C)(C)NS(=O)(=O)c1ccc(-c2sc(C(=O)NC3CCS(=O)(=O)CC3)nc2C2CCCCC2)c2ccccc12 [300/2]
pIC50 (FF) (RORγ): 6.9/8.2/8.2
pIC50 (REN) (RORγ): 6.9/8.2/8.2
pIC50 (FRET) [1]: 6.9/8.2/8.2

CC(C)(C)NS(=O)(=O)c1ccc(-c2sc(C(=O)NC3CS(=O)(=O)C3)nc2CC2CCCCC2)cc1C(C)(C)O [15/3]
pIC50 (FF) (RORγ): 6.9/7.9/7.9
pIC50 (REN) (RORγ): 6.9/7.9/7.9
pIC50 (FRET) [1]: 6.9/7.9/7.9

CC(C)(C)NS(=O)(=O)c1ccc(-c2sc(C(=O)NC3C[S+]([O-])C3)nc2CC2CCCCC2)cc1C(C)(C)O (stereo not drawn) [Example 15/1]
pIC50 (FF) (RORγ): 6.7/8.0/8.0
pIC50 (REN) (RORγ): 6.7/8.0/8.0
pIC50 (FRET) [1]: 6.7/8.0/8.0

COC(C)(C)c1cc(-c2sc(C(=O)N[C@H]3C[C@H](C(=O)O)C3)nc2CC2CCCCC2)cc(C2(C)CC2)c1 [9/5]
pIC50 (FF) (RORγ): 6.7/7.8/7.9
pIC50 (REN) (RORγ): 6.7/7.8/7.9
pIC50 (FRET) [1]: 6.7/7.8/7.9
